ChEMBL document CHEMBL1250471, “Synthesis and antimycobacterial activity of new quinoxaline-2-carboxamide 1,4-di-N-oxide derivatives” (2010)
Converted amounts (≈) assume the structure as drawn.

Tests used:
[1] = Selectivity index, ratio of CC50 for african green monkey Vero cells to MIC for Mycobacterium tuberculosis H37Rv ATCC 27294; format: functional
[2] = system: Mycobacterium tuberculosis; assay: Antimycobacterial activity against Mycobacterium tuberculosis H37Rv ATCC 27294 microplate alamar blue assay; format: functional

Row | Structure (SMILES) | Selectivity Index [1] | IC90 [2] [µg/mL]
1 | Cc1c(C(=O)NCc2ccc(C(F)(F)F)cc2)[n+]([O-])c2cc(Cl)c(Cl)cc2[n+]1[O-] | >6.08 | 6.58 (≈ 14.7 µM)
2 | Cc1c(C(=O)NCc2ccc(Cl)cc2)[n+]([O-])c2ccccc2[n+]1[O-] |  | 11 (≈ 32.1 µM)
3 | Cc1c(C(=O)NCc2ccc(Cl)cc2)[n+]([O-])c2cc(Cl)ccc2[n+]1[O-] |  | 29.7 (≈ 78.5 µM)
4 | Cc1ccc2c(c1)[n+]([O-])c(C(=O)NCc1ccc(Cl)cc1)c(C)[n+]2[O-] |  | 14.6 (≈ 40.7 µM)
5 | Cc1c(C(=O)NCc2ccc(Cl)cc2)[n+]([O-])c2cc(Cl)c(Cl)cc2[n+]1[O-] |  | 51.9 (≈ 126 µM)
6 | Cc1c(C(=O)NCc2ccc(Br)cc2)[n+]([O-])c2ccccc2[n+]1[O-] |  | 15.6 (≈ 40.2 µM)
7 | Cc1c(C(=O)NCc2ccc(Br)cc2)[n+]([O-])c2cc(Cl)ccc2[n+]1[O-] | >7.5 | 5.33 (≈ 12.6 µM)
8 | Cc1ccc2c(c1)[n+]([O-])c(C(=O)NCc1ccc(Br)cc1)c(C)[n+]2[O-] |  | 78.2 (≈ 194 µM)
9 | Cc1c(C(=O)NCc2ccc(Br)cc2)[n+]([O-])c2cc(Cl)c(Cl)cc2[n+]1[O-] | >5.78 | 6.92 (≈ 15.1 µM)
10 | Cc1ccc(CNC(=O)c2c(C)[n+]([O-])c3ccccc3[n+]2[O-])cc1 | >5.92 | 6.76 (≈ 20.9 µM)
11 | O=C(Nc1ccccc1)c1c(-c2ccccc2)[n+]([O-])c2ccccc2[n+]1[O-] |  | 27 (≈ 75.5 µM)
12 | O=C(Nc1ccccc1)c1c(-c2ccccc2)[n+]([O-])c2ccc(Cl)cc2[n+]1[O-] | 1.34 | 6.71 (≈ 17.1 µM)
13 | Cc1ccc(CNC(=O)c2c(C)[n+]([O-])c3ccc(Cl)cc3[n+]2[O-])cc1 |  | 32 (≈ 89.5 µM)
14 | Cc1ccc(CNC(=O)c2c(C)[n+]([O-])c3ccc(C)cc3[n+]2[O-])cc1 |  | 99.9 (≈ 296 µM)
15 | O=C(Nc1ccccc1)c1c(-c2ccccc2)[n+]([O-])c2ccc(F)cc2[n+]1[O-] |  | 17.9 (≈ 47.8 µM)
16 | O=C(Nc1ccccc1)c1c(-c2ccccc2)[n+]([O-])c2ccc(C(F)(F)F)cc2[n+]1[O-] |  | 19.1 (≈ 44.9 µM)
17 | Cc1ccc(CNC(=O)c2c(C)[n+]([O-])c3cc(Cl)c(Cl)cc3[n+]2[O-])cc1 |  | > 100
18 | Cc1c(C(=O)NCC(c2ccccc2)c2ccccc2)[n+]([O-])c2ccccc2[n+]1[O-] |  | 16 (≈ 40 µM)
19 | Cc1ccc2c(c1)[n+]([O-])c(C(=O)Nc1ccccc1)c(-c1ccccc1)[n+]2[O-] |  | 24.6 (≈ 66.4 µM)
20 | COc1ccc2c(c1)[n+]([O-])c(C(=O)Nc1ccccc1)c(-c1ccccc1)[n+]2[O-] |  | 26.8 (≈ 69.3 µM)
21 | Cc1c(C(=O)NCC(c2ccccc2)c2ccccc2)[n+]([O-])c2cc(Cl)ccc2[n+]1[O-] |  | 60.4 (≈ 139 µM)
22 | Cc1ccc2c(c1)[n+]([O-])c(C(=O)NCC(c1ccccc1)c1ccccc1)c(C)[n+]2[O-] |  | 16.8 (≈ 40.6 µM)

Row | Structure (SMILES) | Selectivity Index [1] | IC90 [2] [µg/mL]
23 | O=C(Nc1ccccc1)c1c(-c2ccccc2)[n+]([O-])c2cc(Cl)c(Cl)cc2[n+]1[O-] | 0.84 | 6.63 (≈ 15.6 µM)
24 | O=C(NCc1ccccc1)c1c(-c2ccccc2)[n+]([O-])c2ccccc2[n+]1[O-] | >5.96 | 6.71 (≈ 18.1 µM)
25 | Cc1c(C(=O)NCC(c2ccccc2)c2ccccc2)[n+]([O-])c2cc(Cl)c(Cl)cc2[n+]1[O-] |  | 66.5 (≈ 142 µM)
26 | Cc1c(C(=O)NCc2ccc3c(c2)OCO3)[n+]([O-])c2ccccc2[n+]1[O-] |  | 22.8 (≈ 64.4 µM)
27 | O=C(NCc1ccccc1)c1c(-c2ccccc2)[n+]([O-])c2ccc(Cl)cc2[n+]1[O-] | >11.79 | 3.39 (≈ 8.35 µM)
28 | O=C(NCc1ccccc1)c1c(-c2ccccc2)[n+]([O-])c2ccc(F)cc2[n+]1[O-] | 4.62 | 3.86 (≈ 9.91 µM)
29 | Cc1c(C(=O)NCc2ccc3c(c2)OCO3)[n+]([O-])c2cc(Cl)ccc2[n+]1[O-] | >5.72 | 6.99 (≈ 18 µM)
30 | Cc1ccc2c(c1)[n+]([O-])c(C(=O)NCc1ccc3c(c1)OCO3)c(C)[n+]2[O-] |  | 13.2 (≈ 36 µM)
31 | O=C(NCc1ccccc1)c1c(-c2ccccc2)[n+]([O-])c2ccc(C(F)(F)F)cc2[n+]1[O-] |  | > 100
32 | Cc1ccc2c(c1)[n+]([O-])c(C(=O)NCc1ccccc1)c(-c1ccccc1)[n+]2[O-] |  | 13.9 (≈ 36.1 µM)
33 | Cc1c(C(=O)NCc2ccc3c(c2)OCO3)[n+]([O-])c2cc(Cl)c(Cl)cc2[n+]1[O-] |  | 34.9 (≈ 82.7 µM)
34 | COc1ccc2c(c1)[n+]([O-])c(C(=O)NCc1ccccc1)c(-c1ccccc1)[n+]2[O-] |  | 14.6 (≈ 36.3 µM)
35 | O=C(NCc1ccccc1)c1c(-c2ccccc2)[n+]([O-])c2cc(Cl)c(Cl)cc2[n+]1[O-] |  | 25.4 (≈ 57.8 µM)
36 | O=C(NCCc1ccccc1)c1c(-c2ccccc2)[n+]([O-])c2ccccc2[n+]1[O-] |  | 18.6 (≈ 48.3 µM)
37 | O=C(NCCc1ccccc1)c1c(-c2ccccc2)[n+]([O-])c2ccc(Cl)cc2[n+]1[O-] |  | 15.4 (≈ 36.7 µM)
38 | Cc1c(C(=O)NCc2ccc(C(F)(F)F)cc2)[n+]([O-])c2ccccc2[n+]1[O-] |  | 16.8 (≈ 44.6 µM)
39 | Cc1c(C(=O)NCc2ccc(C(F)(F)F)cc2)[n+]([O-])c2cc(Cl)ccc2[n+]1[O-] | >6.52 | 6.13 (≈ 14.9 µM)
40 | Cc1c(C(=O)NCc2ccc(C(F)(F)F)cc2)[n+]([O-])c2cc(F)ccc2[n+]1[O-] | >8.94 | 4.48 (≈ 11.3 µM)
41 | Cc1c(C(=O)NCc2ccc(C(F)(F)F)cc2)[n+]([O-])c2cc(C(F)(F)F)ccc2[n+]1[O-] | >11.82 | 3.38 (≈ 7.59 µM)
42 | Cc1ccc2c(c1)[n+]([O-])c(C(=O)NCc1ccc(C(F)(F)F)cc1)c(C)[n+]2[O-] |  | > 100
43 | COc1ccc2c(c1)[n+]([O-])c(C(=O)NCc1ccc(C(F)(F)F)cc1)c(C)[n+]2[O-] |  | > 100
44 | CO[C@H]1/C=C/O[C@@]2(C)Oc3c(C)c(O)c4c(O)c(c(/C=N/N5CCN(C)CC5)c(O)c4c3C2=O)NC(=O)/C(C)=C\C=C\[C@H](C)[C@H](O)[C@@H](C)[C@@H](O)[C@@H](C)[C@H](OC(C)=O)[C@@H]1C [RIFAMPIN] | >800 | 0.015 (≈ 0.0182 µM)
